Source: ChEMBL document CHEMBL1201862, “PubChem BioAssay data set” (2004)
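These data come from cells grown in 96-well plates and exposed to compound for 48 hours at five concentrations. The concentration for 50% growth inhibition is given as GI50.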 Activity calls are given as the source filed them. Rule as the data show it: active = GI50 up to about 1.1 µM and inactive = higher.

Legend:
Assay in all cases: NCI-60 cell line screen, 48 h
A498 = tested on: A498
CAKI-1 = tested on: CAKI-1
CCRF-CEM = tested on: CCRF-CEM
COLO 205 = tested on: COLO 205
DLD-1 = tested on: DLD-1
DMS-114 = tested on: DMS-114
DMS-273 = tested on: DMS-273
EKVX = tested on: EKVX
HCC 2998 = tested on: HCC 2998
HCT-116 = tested on: HCT-116
HL-60 = tested on: HL-60
HOP-18 = tested on: HOP-18
HOP-62 = tested on: HOP-62
HT-29 = tested on: HT-29
IGROV-1 = tested on: IGROV-1
K562 = tested on: K562
KM-20L2 = tested on: KM-20L2
KM12 = tested on: KM12
LOX IMVI = tested on: LOX IMVI
M19-MEL = tested on: M19-MEL
MCF7 = tested on: MCF7
MOLT-4 = tested on: MOLT-4
NCI-H226 = tested on: NCI-H226
NCI-H23 = tested on: NCI-H23
NCI-H522 = tested on: NCI-H522
NCI/ADR-RES = tested on: NCI/ADR-RES
OVCAR-3 = tested on: OVCAR-3
OVCAR-4 = tested on: OVCAR-4
OVCAR-5 = tested on: OVCAR-5
RXF 393 = tested on: RXF 393
SF-268 = tested on: SF-268
SF-295 = tested on: SF-295
SF-539 = tested on: SF-539
SK-MEL-28 = tested on: SK-MEL-28
SK-MEL-2 = tested on: SK-MEL-2
SK-MEL-5 = tested on: SK-MEL-5
SK-OV-3 = tested on: SK-OV-3
SN12C = tested on: SN12C
SNB-75 = tested on: SNB-75
SNB-78 = tested on: SNB-78
SW-620 = tested on: SW-620
U-251 = tested on: U-251
UACC-62 = tested on: UACC-62
UO-31 = tested on: UO-31
786-0 = tested on: 786-0
A549 = tested on: A549
ACHN = tested on: ACHN
HCT-15 = tested on: HCT-15
M14 = tested on: M14
Malme-3M = tested on: Malme-3M
NCI-H460 = tested on: NCI-H460
OVCAR-8 = tested on: OVCAR-8
RPMI-8226 = tested on: RPMI-8226
SNB-19 = tested on: SNB-19
TK-10 = tested on: TK-10
UACC-257 = tested on: UACC-257
XF498 = tested on: XF498

Nc1nc(O)c2ncn(C3OC(CO)C(O)C3O)c2n1 (stereo not given)
GI50 (A498): 3.81 µM (inactive)
GI50 (CAKI-1): 77.1 µM (inactive)
GI50 (CCRF-CEM): 23.9 µM (inactive)
GI50 (COLO 205): 57 µM (inactive)
GI50 (DLD-1): 65.3 µM (inactive)
GI50 (DMS-114): 6.15 µM (inactive)
GI50 (DMS-273): 58.7 µM (inactive)
GI50 (EKVX): 10.2 µM (inactive)
GI50 (HCC 2998): 17.1 µM (inactive)
GI50 (HCT-116): 68.1 µM (inactive)
GI50 (HL-60): 37.6 µM (inactive)
GI50 (HOP-18): 49.8 µM (inactive)
GI50 (HOP-62): 8.63 µM (inactive)
GI50 (HT-29): 10.9 µM (inactive)
GI50 (IGROV-1): > 77.4 µM (inactive)
GI50 (K562): 81.7 µM (inactive)
GI50 (KM-20L2): 16.8 µM (inactive)
GI50 (KM12): 80 µM (inactive)
GI50 (LOX IMVI): 52.5 µM (inactive)
GI50 (M19-MEL): 16 µM (inactive)
GI50 (MCF7): 33.8 µM (inactive)
GI50 (MOLT-4): 48.2 µM (inactive)
GI50 (NCI-H226): 72.6 µM (inactive)
GI50 (NCI-H23): 17.4 µM (inactive)
GI50 (NCI-H522): 41.9 µM (inactive)
GI50 (NCI/ADR-RES): 18.4 µM (inactive)
GI50 (OVCAR-3): 23.2 µM (inactive)
GI50 (OVCAR-4): 15.9 µM (inactive)
GI50 (OVCAR-5): 111 µM (inactive)
GI50 (RXF 393): 6.84 µM (inactive)
GI50 (SF-268): 74.8 µM (inactive)
GI50 (SF-295): 71.6 µM (inactive)
GI50 (SF-539): 13.8 µM (inactive)
GI50 (SK-MEL-28): 90.8 µM (inactive)
GI50 (SK-MEL-2): 71.1 µM (inactive)
GI50 (SK-MEL-5): 53.6 µM (inactive)
GI50 (SK-OV-3): 95.7 µM (inactive)
GI50 (SN12C): 79.8 µM (inactive)
GI50 (SNB-75): 15.4 µM (inactive)
GI50 (SNB-78): 95.3 µM (inactive)
GI50 (SW-620): 76.7 µM (inactive)
GI50 (U-251): 16.1 µM (inactive)
GI50 (UACC-62): 13.3 µM (inactive)
GI50 (UO-31): 63.7 µM (inactive)

CC(=O)NC1CC2Oc3ccc(C)cc3C(C)(O2)C1O (stereo not given)
GI50 (786-0): > 100 µM (inactive)
GI50 (A549): > 100 µM (inactive)
GI50 (ACHN): > 100 µM (inactive)
GI50 (CCRF-CEM): > 100 µM (inactive)
GI50 (COLO 205): > 100 µM (inactive)
GI50 (DLD-1): > 100 µM (inactive)
GI50 (DMS-114): > 100 µM (inactive)
GI50 (DMS-273): > 100 µM (inactive)
GI50 (EKVX): > 100 µM (inactive)
GI50 (HCT-116): > 100 µM (inactive)
GI50 (HCT-15): > 100 µM
GI50 (HL-60): > 100 µM (inactive)
GI50 (HOP-18): > 100 µM (inactive)
GI50 (HOP-62): > 100 µM (inactive)
GI50 (HT-29): > 100 µM (inactive)
GI50 (IGROV-1): > 100 µM (inactive)
GI50 (K562): > 100 µM (inactive)
GI50 (KM12): > 100 µM (inactive)
GI50 (LOX IMVI): > 100 µM (inactive)
GI50 (M14): > 100 µM (inactive)
GI50 (M19-MEL): > 100 µM (inactive)
GI50 (MOLT-4): > 100 µM (inactive)
GI50 (Malme-3M): > 100 µM (inactive)
GI50 (NCI-H226): > 100 µM (inactive)
GI50 (NCI-H23): > 100 µM (inactive)
GI50 (NCI-H460): > 100 µM (inactive)
GI50 (NCI-H522): > 100 µM (inactive)
GI50 (OVCAR-3): > 100 µM (inactive)
GI50 (OVCAR-8): > 100 µM (inactive)
GI50 (RPMI-8226): > 100 µM (inactive)
GI50 (RXF 393): > 100 µM (inactive)
GI50 (SF-295): > 100 µM (inactive)
GI50 (SF-539): > 100 µM (inactive)
GI50 (SK-MEL-28): > 100 µM (inactive)
GI50 (SK-MEL-2): > 100 µM (inactive)
GI50 (SK-OV-3): > 100 µM (inactive)
GI50 (SN12C): > 100 µM (inactive)
GI50 (SNB-19): > 100 µM (inactive)
GI50 (SNB-75): > 100 µM (inactive)
GI50 (SW-620): > 100 µM (inactive)
GI50 (TK-10): > 100 µM (inactive)
GI50 (U-251): > 100 µM (inactive)
GI50 (UACC-257): > 100 µM (inactive)
GI50 (UACC-62): > 100 µM (inactive)
GI50 (UO-31): > 100 µM (inactive)
GI50 (XF498): > 100 µM (inactive)
